# In patent US8927717B1, “Thiochromeno[2,3-c]quinolin-12-one derivatives, preparation method and application thereof” (National Defense Medical Center, priority 2014, dated 2015):
# Legend:
# Assay type in all cases: cell-based
# [1] = system: CCRF-CEM
# [2] = system: HL-60(TB); conditions: Leukemia; 10^−5 molar; 48 hours; SRB
# [3] = system: K-562
# [4] = system: RPMI-8226
# [5] = system: SR
# [6] = system: HOP-62
# [7] = system: NCI-H226
# [8] = system: NCI-H460
# [9] = system: NCI-H522
# [10] = system: COLO 205
# [11] = system: HCT-116
# [12] = system: HCT-15
# [13] = system: HT29
# [14] = system: KM12; assay: cells
# [15] = system: SW-620
# [16] = system: SF-295
# [17] = system: SNB-19
# [18] = system: SNB-75
# [19] = system: U251; conditions: U251, five dose
# [20] = system: LOX IMVI; conditions: LOX IMVI, five dose
# [21] = system: M14
# [22] = system: SK-MEL-28
# [23] = system: SK-MEL-5
# [24] = system: OVCAR-5
# [25] = system: OVCAR-8
# [26] = system: NCI/ADR-RES
# [27] = system: SK-OV-3
# [28] = system: A498
# [29] = system: RXF 393; conditions: Renal cancer; 10^−5 molar; 48 hours; SRB
# [30] = system: SN12C
# [31] = system: TK-10
# [32] = system: PC-3
# [33] = system: DU-145
# [34] = system: MCF7
# [35] = system: MDA-MB-231/ATCC
# [36] = system: HS 578T
# [37] = system: BT-549
# [38] = system: T-47D
# [39] = system: 60 cancer cell lines; assay: NCI 60-cell screen, SRB, whole panel (mean, delta, range)
# [40] = Leukemia, 10^−5 molar, 48 hours, SRB
# [41] = Non-small cell lung cancer, 10^−5 molar, 48 hours, SRB
# [42] = Homo sapiens, NCI-H460, five dose
# [43] = Homo sapiens, NCI-H522, five dose
# [44] = Colon cancer, 10^−5 molar, 48 hours, SRB
# [45] = Homo sapiens, HCT-116, five dose
# [46] = Homo sapiens, HCT-15, five dose
# [47] = Homo sapiens, HT-29, HT29, five dose
# [48] = Homo sapiens, SW-620, five dose
# [49] = CNS cancer, 10^−5 molar, 48 hours, SRB
# [50] = Homo sapiens, SNB-75, five dose
# [51] = Melanoma, 10^−5 molar, 48 hours, SRB
# [52] = Homo sapiens, SK-MEL-28, five dose
# [53] = Homo sapiens, SK-MEL-5, five dose
# [54] = Ovarian cancer, 10^−5 molar, 48 hours, SRB
# [55] = Renal cancer, 10^−5 molar, 48 hours, SRB
# [56] = Prostate cancer, 10^−5 molar, 48 hours, SRB
# [57] = Breast cancer, 10^−5 molar, 48 hours, SRB
smiles,measurement,setting,value
"NCCNc1nc2ccccc2c2c(=O)c3cc(Cl)ccc3sc12 [Compound N14, 6-((2-Aminoethyl)amino)-10-chloro-12H-thiochromeno[2,3-c]quinolin-12-one]",TGI,"[1]; CCRF-CEM, five dose",3650 nM
same,GI50,"[1]; Homo sapiens, CCRF-CEM, five dose",1750 nM
same,CC50,"[1]; Homo sapiens, CCRF-CEM, five dose, read-out: LC50 (the source's name)",7640 nM
same,Growth percent CCRF-CEM,[1]; [40],−39.61%
same,Growth percent HL-60(TB),[2],−47.50%
same,GI50,"[3]; Homo sapiens, K562, K-562, five dose",1690 nM
same,CC50,"[3]; Homo sapiens, K562, K-562, five dose, read-out: LC50 (the source's name)",7840 nM
same,TGI,"[3]; K-562, five dose",3650 nM
same,Growth percent K-562,[3]; [40],−57.17%
same,GI50,"[4]; Homo sapiens, RPMI-8226, five dose",2260 nM
same,CC50,"[4]; Homo sapiens, RPMI-8226, five dose, read-out: LC50 (the source's name)",62300 nM
same,Growth percent RPMI-8226,[4]; [40],−27.48%
same,TGI,"[4]; RPMI-8226, five dose",4920 nM
same,GI50,"[5]; Homo sapiens, SR, five dose",1810 nM
same,LC50 (50% lethal concentration),"[5]; Homo sapiens, SR, five dose",> 100000 nM
same,Growth percent SR,[5]; [40],−51.67%
same,TGI,"[5]; SR, five dose",4300 nM
same,TGI,"[6]; HOP-62, five dose",2920 nM
same,GI50,"[6]; Homo sapiens, HOP-62, five dose",1470 nM
same,Growth percent HOP-62,[6]; [41],−97.40%
same,GI50,"[7]; Homo sapiens, NCI-H226, five dose",1360 nM
same,TGI,"[7]; NCI-H226, five dose",2950 nM
same,Growth percent NCI-H226,[7]; [41],28.55%
same,GI50,[8]; [42],1690 nM
same,LC50,[8]; [42],7050 nM
same,TGI,"[8]; NCI-H460, five dose",3450 nM
same,Growth percent NCI-H460,[8]; [41],−62.39%
same,GI50,[9]; [43],1860 nM
same,LC50 (concentration causing 50% net cell kill),[9]; [43],6920 nM
same,TGI,"[9]; NCI-H522, five dose",3590 nM
same,Growth percent NCI-H522,[9]; [41],−66.59%
same,TGI,"[10]; COLO 205, five dose",3570 nM
same,Growth percent COLO 205,[10]; [44],−87.22%
same,GI50,"[10]; Homo sapiens, COLO 205, five dose",1730 nM
same,Growth percent HCT-116,[11]; [44],−48.19%
same,TGI,"[11]; HCT-116, five dose",2990 nM
same,GI50,[11]; [45],1630 nM
same,LC50 (concentration killing 50% of cells),[11]; [45],5470 nM
same,Growth percent HCT-15,[12]; [44],−45.92%
same,TGI,"[12]; HCT-15, five dose",3120 nM
same,GI50,[12]; [46],1580 nM
same,LC50,[12]; [46],6160 nM
same,Growth percent HT29,[13]; [44],−83.30%
same,TGI,"[13]; HT29, five dose",3290 nM
same,GI50,[13]; [47],1780 nM
same,LC50 (concentration killing 50% of cells),[13]; [47],6090 nM
same,Growth percent KM12,[14]; [44],−85.99%
same,GI50,"[14]; Homo sapiens, KM12, five dose",1670 nM
same,LC50,"[14]; Homo sapiens, KM12, five dose",5790 nM
same,TGI,"[14]; KM12, five dose",3110 nM
same,Growth percent SW-620,[15]; [44],−66.88%
same,GI50,[15]; [48],1670 nM
same,LC50,[15]; [48],7020 nM
same,TGI,"[15]; SW-620, five dose",3420 nM
same,Growth percent SF-295,[16]; [49],−74.29%
same,GI50,"[16]; Homo sapiens, SF-295, five dose",1790 nM
same,TGI,"[16]; SF-295, five dose",3630 nM
same,Growth percent SNB-19,[17]; [49],40.06%
same,GI50,"[17]; Homo sapiens, SNB-19, five dose",1650 nM
same,TGI,"[17]; SNB-19, five dose",3180 nM
same,Growth percent SNB-75,[18]; [49],−43.13%
same,GI50,[18]; [50],1090 nM
same,LC50,[18]; [50],4900 nM
same,TGI,"[18]; SNB-75, five dose",2310 nM
same,GI50,"[19]; Homo sapiens, U-251",1630 nM
same,LC50,"[19]; Homo sapiens, U-251",5780 nM
same,TGI,[19],3070 nM
same,GI50,[20]; Homo sapiens,1680 nM
same,LC50,[20]; Homo sapiens,5960 nM
same,TGI,[20],3160 nM
same,GI50,"[21]; Homo sapiens, M14, five dose",1830 nM
same,LC50,"[21]; Homo sapiens, M14, five dose",6140 nM
same,TGI,"[21]; M14, five dose",3350 nM
same,Growth percent M14,[21]; [51],−55.62%
same,GI50,[22]; [52],1750 nM
same,LC50,[22]; [52],5660 nM
same,Growth percent SK-MEL-28,[22]; [51],−96.20%
same,TGI,"[22]; SK-MEL-28, five dose",3150 nM
same,GI50,[23]; [53],1510 nM
same,LC50,[23]; [53],5440 nM
same,Growth percent SK-MEL-5,[23]; [51],68.64%
same,TGI,"[23]; SK-MEL-5, five dose",2870 nM
same,GI50,"[24]; Homo sapiens, OVCAR-5, five dose",1460 nM
same,CC50,"[24]; Homo sapiens, OVCAR-5, five dose, read-out: LC50 (the source's name)",5660 nM
same,TGI,"[24]; OVCAR-5, five dose",2880 nM
same,Growth percent OVCAR-5,[24]; [54],−52.16%
same,GI50,"[25]; Homo sapiens, OVCAR-8, five dose",1890 nM
same,TGI,"[25]; OVCAR-8, five dose",4120 nM
same,Growth percent OVCAR-8,[25]; [54],−74.59%
same,GI50,"[26]; Homo sapiens, NCI/ADR-RES, five dose",1880 nM
same,TGI,"[26]; NCI/ADR-RES, five dose",3670 nM
same,Growth percent NCI/ADR-RES,[26]; [54],−42.68%
same,GI50,"[27]; Homo sapiens, SK-OV-3, five dose",1780 nM
same,CC50,"[27]; Homo sapiens, SK-OV-3, five dose, read-out: LC50 (the source's name)",6420 nM
same,Growth percent SK-OV-3,[27]; [54],12.25%
same,TGI,"[27]; SK-OV-3, five dose",3380 nM
same,TGI,"[28]; A498, five dose",4990 nM
same,GI50,"[28]; Homo sapiens, A498, five dose",1450 nM
same,CC50,"[28]; Homo sapiens, A498, five dose, read-out: LC50 (the source's name)",29200 nM
same,Growth percent A498,[28]; [55],60.29%
same,Growth percent RXF 393,[29],−87.22%
same,GI50,"[30]; Homo sapiens, SN12C, five dose",1450 nM
same,Growth percent SN12C,[30]; [55],−93.98%
same,TGI,"[30]; SN12C, five dose",3020 nM
same,GI50,"[31]; Homo sapiens, TK-10, five dose",2060 nM
same,CC50,"[31]; Homo sapiens, TK-10, five dose, read-out: LC50 (the source's name)",6210 nM
same,Growth percent TK-10,[31]; [55],−28.04%
same,TGI,"[31]; TK-10, five dose",3580 nM
same,GI50,"[32]; Homo sapiens, PC-3, five dose",1550 nM
same,CC50,"[32]; Homo sapiens, PC-3, five dose, read-out: LC50 (the source's name)",5760 nM
same,TGI,"[32]; PC-3, five dose",2990 nM
same,Growth percent PC-3,[32]; [56],−97.71%
same,TGI,"[33]; DU-145, five dose",3200 nM
same,GI50,"[33]; Homo sapiens, DU-145, five dose",1810 nM
same,CC50,"[33]; Homo sapiens, DU-145, five dose, read-out: LC50 (the source's name)",5660 nM
same,Growth percent DU-145,[33]; [56],−96.35%
same,Growth percent MCF7 (Table 2: MCF),[34]; [57],−98.38%
same,GI50,"[34]; Homo sapiens, MCF7, five dose",1280 nM
same,TGI,"[34]; MCF7, five dose",2810 nM
same,Growth percent MDA-MB-231/ATCC,[35]; [57],−84.52%
same,GI50,"[35]; Homo sapiens, MDA-MB-231/ATCC, five dose",1310 nM
same,CC50,"[35]; Homo sapiens, MDA-MB-231/ATCC, five dose, read-out: LC50 (the source's name)",5350 nM
same,TGI,"[35]; MDA-MB-231/ATCC, five dose",2650 nM
same,Growth percent HS 578T,[36]; [57],50.82%
same,TGI,"[36]; HS 578T, five dose",3900 nM
same,GI50,"[36]; Homo sapiens, HS 578T, five dose",1690 nM
same,TGI,"[37]; BT-549, five dose",5350 nM
same,Growth percent BT-549,[37]; [57],78.49%
same,GI50,"[37]; Homo sapiens, BT-549, five dose",2150 nM
same,CC50,"[37]; Homo sapiens, BT-549, five dose, read-out: LC50 (the source's name)",62000 nM
same,Growth percent T-47D,[38]; [57],−82.45%
same,GI50,"[38]; Homo sapiens, T47D, T-47D, five dose",1560 nM
same,TGI,"[38]; T-47D, five dose",3370 nM
same,GI50,"[39]; 60 cell, mean over panel, five dose",1660 nM
same,CC50,"[39]; 60 cell, mean over panel, five dose, read-out: LC50, Mean",7940 nM
same,"Growth percent, Delta","[39]; delta over the cell panel, 10^−5 molar, 48 hours, SRB",46.49%
same,"TGI, Mean","[39]; mean over panel, five dose",3390 nM
same,"Growth percent, Mean","[39]; mean over the cell panel, 10^−5 molar, 48 hours, SRB",−51.89%
same,"Growth percent, Range","[39]; range over the cell panel, 10^−5 molar, 48 hours, SRB",176.87%
